{
  "source": "patent US20260076935A1",
  "about": "“PREVENTION AND TREATMENT OF CONDITIONS USING ETHYL PYRUVATE” (The Trustees of Columbia University in the City of New York, priority 2023, published 2026)",
  "key": {"[1]": {"system": "early-onset Lmx1b developmental glaucoma model", "assay": "Intraocular pressure (IOP) in mice with early-onset Lmx1b developmental glaucoma model", "type": "in vivo", "source_text": "Ethyl pyruvate's ability to treat or prevent IOP elevation ocular developmental abnormalities was surprising at least because such effects have not been observed with sodium pyruvate treatments."}, "[2]": {"settings": "multiple mammalian species, including humans, mice, rats, and horses; cited from earlier work"}, "[3]": {"system": "early onset Lmx1b developmental glaucoma model", "assay": "Glaucomatous optic nerve damage (neurodegeneration) in Lmx1b glaucoma mice", "type": "in vivo", "settings": "FIG. 8"}, "[4]": {"assay": "Long-term dosing of mice, adverse effects", "type": "in vivo", "settings": "mice dosed for at least up to nine months", "method": "Ethyl pyruvate was sourced from Sigma-Aldrich. […] See, e.g., Clinical Trial Identifier NCT00107666 (human cardiac trial, dosing ethyl pyruvate at 7.5 g (90 mg/kg) intravenously, every six hours for two days); Xiujing Sun et al., Ethyl Pyruvate Supplemented in Drinking Water Ameliorates Experimental Nonalcoholic Steatohepatitis, 137 Biomedical Pharmacotherapy 111392 (2021); Leilei Mao et al., Ethyl Pyruvate Improves White Matter Remodeling in Rats After Traumatic Brain Injury, 27 CNS Neuroscience & Therapeutics 113 (2021); C. C. Jacobs et al, Ethyl Pyruvate Diminishes the Inflammatory Response to Lipopolysaccharide Infusion in Horses, 45 Equine Veterinary J. 333 (2013). […] Furthermore, ethyl pyruvate is an FDA-approved food additive and flavoring agent."}, "[5]": {"system": "early onset Lmx1b developmental glaucoma model", "assay": "Ocular developmental abnormalities (iridocorneal adhesions, anterior chamber depth) in Lmx1b glaucoma mice", "type": "in vivo", "source_text": "As shown in FIGS. 4-6, in addition to preventing or treating high IOP, treatment of mice harboring an early onset Lmx1b developmental glaucoma model with ethyl pyruvate, alone or in combination with a metabolite boosting agent, unexpectedly rescued ocular developmental abnormalities. […] Ethyl pyruvate's ability to treat or prevent IOP elevation ocular developmental abnormalities was surprising at least because such effects have not been observed with sodium pyruvate treatments."}, "[6]": {"system": "age-onset mouse glaucoma models", "assay": "IOP in age-onset mouse glaucoma models", "type": "in vivo", "method": "In some embodiments, one or more of these factors may lead to glaucoma. In some embodiments, the mouse model is a Lmx1b mouse model. This is unexpected at least because sodium pyruvate had no effect on IOP in age-onset mouse glaucoma models, or in the early-onset Lmx1b developmental glaucoma model. For example, treatment of Lmx1b mice with about 500 mg/kg/day of sodium pyruvate had no effect on IOP at 2, 3, and 4-months post-treatment. This is also unexpected at least because calcium pyruvate had no effect on IOP in humans in prior clinical studies."}, "[7]": {"settings": "prior clinical studies; cited from earlier work"}, "[8]": {"settings": "about 500 mg/kg/day, 2, 3, and 4-months post-treatment, Lmx1b mice"}},
  "data": [
    {"compound": "CCOC(=O)C(C)=O", "note": "[ethyl pyruvate]", "values": [
      {"measurement": "IOP", "setting": "[1]; ethyl pyruvate 500 mg/kg/day, out to two months of age, FIG. 1", "result": "lessening of IOP"},
      {"measurement": "IOP", "setting": "[1]; ethyl pyruvate 2000 mg/kg/day, FIG. 2", "result": "lessening of IOP"},
      {"measurement": "safety and tolerability", "setting": "[2]", "result": "safe and well-tolerated"},
      {"measurement": "glaucomatous optic nerve damage (neurodegeneration)", "setting": "[3]; ethyl pyruvate 2000 mg/kg/day, mice aged to six months", "result": "lessening of glaucomatous optic nerve damage"},
      {"measurement": "adverse effects", "setting": "[4]", "result": "without adverse effects"},
      {"measurement": "anterior chamber deepening", "setting": "[5]; FIGS. 5-6", "result": "significant effect in preventing or reducing anterior chamber deepening"},
      {"measurement": "incidence and severity of iridocorneal adhesions", "setting": "[5]; ethyl pyruvate 2000 mg/kg/day, FIG. 4", "result": "less incidence and severity"}
    ]},
    {"compound": "NC(=O)c1cccnc1", "note": "[nicotinamide]", "values": [
      {"measurement": "glaucomatous optic nerve damage", "setting": "[3]; nicotinamide 550 mg/kg/day", "result": "protective from glaucomatous optic nerve damage"}
    ]},
    {"compound": "CC(=O)C(=O)[O-].[Na+]", "note": "[sodium pyruvate]", "values": [
      {"measurement": "IOP", "setting": "[6]", "result": "no effect"},
      {"measurement": "IOP", "setting": "[1]; [8]", "result": "no effect"},
      {"measurement": "IOP elevation", "setting": "[1]; sodium pyruvate 500 mg/kg/day, after two months, FIG. 7", "result": "no effect"},
      {"measurement": "IOP compared to untreated", "setting": "[1]; sodium pyruvate 500 mg/kg/day, at three and four months", "result": "no changes were observed"},
      {"measurement": "severity of anterior eye developmental abnormalities", "setting": "[5]; [8]", "result": "no effect"},
      {"measurement": "severity of anterior eye developmental abnormalities", "setting": "[5]; sodium pyruvate 500 mg/kg/day", "result": "no change"}
    ]},
    {"compound": "calcium pyruvate", "values": [
      {"measurement": "IOP in humans", "setting": "[7]", "result": "no effect"}
    ]}
  ]
}
